Experimental data: patent US12522606B2, “Modified pyrrolo- and pyrazolo-pyrimidines for prostate cancer therapy” (University of Washington, priority 2020, dated 2026)
Like-named read-outs stand apart in the source and are kept apart here.

How the values were obtained:
MSKCC-EF1 = experiment: Proliferation EC50, MSKCC-EF1; type: cell-based; settings: Homo sapiens; Table 2
Description: (§1) Anti-tumor activity was determined by screening a series of compounds against the castrate-resistant, androgen-receptor-positive, prostate cancer cell line LNCaP95. […] Inhibition of proliferation was determined based on the level of LNCaP95 cell growth suppression using an MTT assay (NAD(P)H-dependent cellular oxidoreductase enzymatic activities)) read at 72 and 96 hours after addition of the compounds. […] Each cell line was be tested in quadruplicate.
(§2) C4-2 and C4-2B3 are derived from LNCaP but have different characteristics. […] LNCaP, C4-2 and C4-2B require androgen receptor but only LNCaP line is androgen sensitive.
(§3) RWPE-1 is immortalized benign prostate hypertrophic cell line. […] LAPC4 is AR+ castrate resistant line not LNCaP-based prostate cancer. […] HFF1 is human foreskin fibroblast cell line. NCI-H660 is neuroendocrine (NE) prostate cancer human AR− cell line. MSKCC-EF1 is NE human prostate AR- or nearly negative prostate cancer cell line. MCF7 is human breast cancer cell line. U2OS is human osteosarcoma cell line. HepG2 is hepatoma liver tumor cell line. CRL8155 is lymphoblastoid cell line.

[1] = Plasma protein binding, mouse; type: in vitro ADME
16D = experiment: Proliferation EC50, 16D; type: cell-based; settings: Table 2
[2] = system: intracellular ATP in LNCaP95; experiment: Intracellular ATP in LNCaP95 (CellTiter-Glo); type: cell-based; settings: FIG. 1, without oligomycin
Description: The relative intracellular levels of ATP were evaluated by CellTiter-Glo® Luminescent Cell Viability Assay. 2-DG is 2-deoxy-d-glucose.
OXPHOS is oxidative phosphorylation; oligo is oligomycin; AA is antimycin A; ETX is etomoxir; FCCP is carbonyl cyanide-4-trifluoromethoxy)phenylhydrazone; and Rot is rotenone.

[3] = Plasma protein binding, rat; type: in vitro ADME
[4] = Cell death when mitochondria respiration is blocked (FIGS. 5A-5C); type: cell-based
ATP levels = experiment: Time course of ATP levels, Compound 1 with oligomycin (FIG. 4); type: cell-based; settings: co-administration with oligomycin
LNCaP95 = experiment: MTT proliferation assay, LNCaP95; type: cell-based; settings: Homo sapiens, LNCaP-95
Description: as §1

U2OS = experiment: Proliferation EC50, U2OS; type: cell-based; settings: Homo sapiens, Table 2
Description: as §1, §2, §3

hERG = hERG (Homo sapiens, UniProt Q12809); experiment: hERG; settings: Table 1; last column beside CC50 (μM), own unit not clearly printed
RWPE-1 = experiment: Proliferation EC50, RWPE-1; type: cell-based; settings: Homo sapiens, Table 2
Description: as §1, §2, §3

NCI-H660 = experiment: Proliferation EC50, NCI-H660; type: cell-based; settings: Homo sapiens, Table 2
Description: as §1, §2, §3

PC3 = experiment: MTT proliferation assay, PC3; settings: Homo sapiens
MCF7 = experiment: Proliferation EC50, MCF7; type: cell-based; settings: Homo sapiens, Table 2
Description: as §1, §2, §3

APIPC = experiment: Proliferation EC50, APIPC; type: cell-based; settings: Table 2
HEPG2 = experiment: Cell toxicity, HEPG2 hepatoma cell line; settings: read-out: EC50 HepG2; Table 2
LAPC4 = experiment: Proliferation EC50, LAPC4; type: cell-based; settings: Homo sapiens, Table 2
Description: as §1, §2, §3

C4-2B = experiment: Proliferation EC50, C4-2B; type: cell-based; settings: Table 2
Description: as §1, §2

PK Oral (MMV) = type: in vivo; settings: dose 25 mg/kg
CRL-8155 = experiment: Cell toxicity, CRL-8155 lymphoblastoid cell line; settings: read-out: EC50 CRL8155; Table 2
42F = experiment: Proliferation EC50, 42F; type: cell-based; settings: Table 2
42D = experiment: Proliferation EC50, 42D; type: cell-based; settings: Table 2
in vitro [5] = settings: human, CRL-8155 lymphoblastoid cell line
[6] = Plasma protein binding, human; type: in vitro ADME
HFF-1 = experiment: Proliferation EC50, HFF-1; type: cell-based; settings: Homo sapiens, Table 2
Description: as §1, §2, §3

in vitro [7] = settings: human, HepG2 hepatoma cell line
C4-2 = experiment: Proliferation EC50, C4-2; type: cell-based; settings: Table 2
Description: as §1, §2

LNCaP cells = experiment: Cell death in LNCaP cells, alone or in combination, 24 h (FIG. 6); type: cell-based
Description: FIG. 6 evaluation of Compound 1 and metformin in LNCaP cells. LNCaP cells were treated with Compound 1, oligomycin (Oli), 2-deoxy-d-glucose (2-DG), or metformin (Met), alone or in combination for 24 h.
FIGS. 2-4 provide additional results on the activity of the compounds of the disclosure. […] Co-administration of Compound 1 and metformin is illustrated in FIG. 6. LNCaP cells were treated with Compound 1, oligomycin (Oli), 2-deoxy-d-glucose (2-DG), or metformin (Met), alone or in combination for 24 h. […] None of compounds were sufficient to kill cells under the same conditions on their own.

LNCaP = experiment: MTT proliferation assay, LNCaP; settings: Homo sapiens
DU145 = experiment: Proliferation EC50, DU145; type: cell-based; settings: Homo sapiens, DU-145; Table 2

hERG, sequence (Q12809 whole entry): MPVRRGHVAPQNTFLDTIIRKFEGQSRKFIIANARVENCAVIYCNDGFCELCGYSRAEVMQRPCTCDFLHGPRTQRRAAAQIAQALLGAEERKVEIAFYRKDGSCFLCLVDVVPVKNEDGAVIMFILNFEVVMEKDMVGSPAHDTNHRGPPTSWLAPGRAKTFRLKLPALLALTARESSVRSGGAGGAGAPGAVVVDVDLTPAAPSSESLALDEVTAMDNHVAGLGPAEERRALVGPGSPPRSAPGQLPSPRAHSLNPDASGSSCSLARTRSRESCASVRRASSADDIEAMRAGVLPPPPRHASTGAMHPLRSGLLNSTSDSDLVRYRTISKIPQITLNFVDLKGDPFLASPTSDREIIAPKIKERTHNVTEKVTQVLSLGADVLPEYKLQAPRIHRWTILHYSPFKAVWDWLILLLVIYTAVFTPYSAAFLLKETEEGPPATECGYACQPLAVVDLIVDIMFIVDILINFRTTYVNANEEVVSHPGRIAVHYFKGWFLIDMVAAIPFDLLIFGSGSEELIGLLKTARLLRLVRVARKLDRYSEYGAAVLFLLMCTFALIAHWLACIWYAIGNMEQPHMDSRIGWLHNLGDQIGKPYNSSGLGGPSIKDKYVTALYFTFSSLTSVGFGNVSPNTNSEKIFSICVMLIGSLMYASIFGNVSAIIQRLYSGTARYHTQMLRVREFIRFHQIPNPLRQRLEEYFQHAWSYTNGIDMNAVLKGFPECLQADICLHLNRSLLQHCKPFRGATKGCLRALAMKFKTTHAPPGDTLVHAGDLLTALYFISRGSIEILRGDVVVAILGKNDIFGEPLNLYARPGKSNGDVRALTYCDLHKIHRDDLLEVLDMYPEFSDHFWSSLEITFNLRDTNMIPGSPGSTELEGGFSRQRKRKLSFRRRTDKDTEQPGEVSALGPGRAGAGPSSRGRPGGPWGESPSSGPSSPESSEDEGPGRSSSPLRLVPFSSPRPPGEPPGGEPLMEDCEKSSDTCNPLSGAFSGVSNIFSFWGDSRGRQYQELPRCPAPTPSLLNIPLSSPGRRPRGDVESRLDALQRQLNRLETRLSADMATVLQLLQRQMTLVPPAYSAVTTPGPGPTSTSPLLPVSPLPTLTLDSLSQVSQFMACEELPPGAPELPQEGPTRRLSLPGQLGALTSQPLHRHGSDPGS

With `CNc1ncnc2c1c(-c1ccc3cc(OC4CC4)ccc3c1)nn2CC(C)(C)O` [Example 1, 1-(3-(6-cyclopropoxynaphthalen-2-yl)-4-(methylamino)-1H-pyrazolo[3,4-d]pyrimidin-1-yl)-2-methylpropan-2-ol] the EC50 (MSKCC-EF1) was 5 µM, the fraction unbound [1] was 0.012 and the EC50 (16D) was 10 µM. For the same compound, the “change in ATP levels, compound alone” value [2] was “no change”, the fraction unbound [3] was 0.04 and the “cell death when mitochondria respiration is blocked” value [4] was “induces cell death”. The “earliest time at which ATP levels are altered” value (ATP levels) was 10 min, the EC50 (LNCaP95; Table 1, LNCaP95 (AR+ PCa), unit inferred) was 5 µM and the inhibition at 10 µM (LNCaP95; read-out: MTT % inhib @ 10 μM LNCaP95) was 51.5%. The EC50 (U2OS) was > 20 µM, the hERG (hERG) was 13.9 and the EC50 (RWPE-1) was > 20 µM. The EC50 (NCI-H660) was 10 µM, the EC50 (PC3; PC-3, read-out: EC50 PC3) was > 20 µM and the inhibition at 10 µM (PC3; PC-3, read-out: MTT % inhib @ 10 μM PC3) was 16.8%. For the same compound, the EC50 (PC3; read-out: EC50 PC3) was > 20 µM, the EC50 (MCF7) was 8 µM and the EC50 (APIPC) was 10 µM. For the same compound, the EC50 (HEPG2) was > 40 µM, the EC50 (LAPC4) was 7 µM and the EC50 (C4-2B) was 12 µM. For the same compound, the AUC (PK Oral (MMV)) was 28935 µmol·min/L, the Cmax (PK Oral (MMV); in vivo) was 34 µM and the Tmax (PK Oral (MMV); in vivo) was 3 h. The EC50 (CRL-8155) was > 40 µM, the EC50 (42F) was 20 µM and the EC50 (42D) was 10 µM. The CC50 (in vitro [5]) was > 80 µM, the fraction unbound [6] was 0.007 and the EC50 (HFF-1) was > 20 µM. For the same compound, the CC50 (in vitro [7]) was > 80 µM, the EC50 (C4-2) was 12 µM and the “cell death in combination with oligomycin or metformin” value (LNCaP cells) was “cause cell death”. The EC50 (LNCaP; read-out: EC50 LNCaP) was 8 µM, the inhibition at 10 µM (LNCaP; read-out: MTT % inhib @ 10 μM LNCaP) was 35.4% and the EC50 (DU145) was > 20 µM.
